According to patent publication US20010044445A1, “AZOLE INHIBITORS OF CYTOKINE PRODUCTION” (priority 1999, published 2001):

Assays:
[1] = tested on: Human peripheral blood mononuclear cells; assay: Human Concanavalin-A Proliferation Assay (Con HU Assay); format: cell-based; details: Homo sapiens, PBMC, concanavalin-A stimulated human PBMC; for IC50: tritiated thymidine; for inhibition at 10 µM / inhibition at 100 µM / inhibition at 1 µM: 72 h, 3 days, read-out: % Inhibition of proliferation (at concentrations of 1,10, or 100 μm); for inhibition at 10 µM: concentration 10 μm (in parentheses in the cell); for inhibition at 100 µM: concentration 100 μm (in parentheses in the cell); for inhibition at 1 µM: concentration 1 μm (in parentheses in the cell)
Summary of the method: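 Histopaque-isolated human PBMC (50,000/well) were pre-incubated 15 min with compounds, then stimulated with concanavalin-A at 2.5 μg/ml final for 3 days at 37 °C, 5% CO2. Proliferation measured by 6 h pulse with 0.5 μCi/well [3H]thymidine and beta counting.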

Row | Structure (SMILES) | IC50 [1] | melting point | inhibition at 10 µM [1] | inhibition at 100 µM [1] | inhibition at 1 µM [1]
1 | O=C(Nc1ccc(-n2nc(C(F)(F)F)nc2Cl)cc1)c1ccncc1F [Example 336, N-(4-(5-chloro-3-(trifluoromethyl)-1H-1,2,4-triazol-1-yl)phenyl)-3-fluoroisonicotinamide] | 1830 nM | 167 to 170 °C | – | – | –
2 | O=C(Nc1ccc(-n2nc(C(F)(F)F)cc2C(F)(F)F)cc1)c1cccc(CO)c1 [Example 51, N-[4-[3,5-bis(trifluoromethyl)-1H-pyrazol-1-yl]phenyl]-3-(hydroxymethyl)benzamide] | 778 nM | 160 to 162 °C | 100% | – | –
3 | O=C(Nc1ccc(-n2nc(C(F)(F)F)cc2C(F)(F)F)cc1)c1c(F)cccc1C(F)(F)F [Example 213, N-[4-[3,5-bis(trifluoromethyl)-1H-pyrazol-1-yl]phenyl]-2-fluoro-6-(trifluoromethyl)benzamide] | 434 nM | 175 to 176 °C | 100% | – | –
4 | O=C(Nc1ccc(-n2nc(C(F)(F)F)cc2C(F)(F)F)cc1)c1ccc(Cl)cc1O [Example 220, N-[4-[3,5-bis(trifluoromethyl)-1H-pyrazol-1-yl]phenyl]-4-chloro-2-hydroxybenzamide] | 4230 nM | 200 to 202 °C | 100% | – | –
5 | O=C(Nc1ccc(-n2nc(C(F)(F)F)cc2C(F)(F)F)cc1)c1cccc(F)c1 [Example 146, N-[4-[3,5-bis(trifluoromethyl)-1H-pyrazol-1-yl]phenyl]-3-fluorobenzamide] | 269 nM | 148 to 151 °C | – | 98% | –
6 | O=C(Nc1ccc(-n2nc(C(F)(F)F)cc2C(F)(F)F)cc1)c1cccc(C(F)(F)F)c1 [Example 101, N-[4-[3,5-bis(trifluoromethyl)-1H-pyrazol-1-yl]phenyl]-3-(trifluoromethyl)benzamide] | 2230 nM | 143 to 145 °C | – | 100% | –
7 | O=C(O)c1ccc(C(=O)Nc2ccc(-n3nc(C(F)(F)F)cc3C(F)(F)F)cc2)cc1 [Example 157, 4-[[[4-[3,5-bis(trifluoromethyl)-1H-pyrazol-1-yl]phenyl]amino]carbonyl]benzoic acid] | 6760 nM | 282 to 283 °C | 42% | – | –
8 | O=C(Nc1ccncc1)c1ccc(-n2nc(C(F)(F)F)cc2C(F)(F)F)cc1 [Example 194, 4-[3,5-Bis(trifluoromethyl)-1H-pyrazol-1-yl]-N-(4-pyridinyl)benzamide] | – | 234 to 235 °C | – | – | 23%
9 | FC(F)(F)c1cc(C(F)(F)F)n(-c2ccc(/C=C/c3ccccc3Cl)cc2)n1 [Example 154, (E)-1-[4-[2-(2-chlorophenyl)ethenyl]phenyl]-3,5-bis(trifluoromethyl)-1H-pyrazole] | 3820 nM | 81 to 82 °C | 52% | – | –
10 | O=C(Nc1ccc(-n2nc(C(F)(F)F)cc2C(F)(F)F)cc1)c1ccc2c(c1)OCO2 [Example 148, N-[4-[3,5-bis(trifluoromethyl)-1H-pyrazol-1-yl]phenyl]-1,3-benzodioxole-5-carboxamide] | 529 nM | 222 to 224 °C | – | 94% | –
11 | O=C(Nc1ccccc1Cl)c1ccc(-n2nc(C(F)(F)F)cc2C(F)(F)F)cc1 [Example 185, 4-[3,5-Bis(trifluoromethyl)-1H-pyrazol-1-yl]-N-(2-chlorophenyl)benzamide] | – | 162 to 164 °C | – | – | 26%
12 | O=C(Nc1ccc(-n2nc(C(F)(F)F)cc2C(F)(F)F)cc1)c1cccc(Cl)c1 [Example 130, N-[4-[3,5-bis(trifluoromethyl)-1H-pyrazol-1-yl]phenyl]-3-chlorobenzamide] | 336 nM | 142 to 144 °C | – | 100% | –
13 | O=C(Nc1ccc(-n2nc(C(F)(F)F)cc2C(F)(F)F)cc1)c1ccccc1Br [Example 147, N-[4-[3,5-bis(trifluoromethyl)-1H-pyrazol-1-yl]phenyl]-2-bromobenzamide] | 71 nM | 182 to 184 °C | – | 99% | –
14 | O=C(Nc1ccc(-n2nc(C(F)(F)F)cc2C(F)(F)F)cc1)c1ccccc1[N+](=O)[O-] [Example 136, N-[4-[3,5-bis(trifluoromethyl)-1H-pyrazol-1-yl]phenyl]-2-nitrobenzamide] | 222 nM | 174 to 176 °C | – | 99% | –
15 | O=C(Nc1ccc(-n2nc(C(F)(F)F)cc2OC(F)F)cc1)c1ccccc1F [Example 352, N-(4-(5-(difluoromethoxy)-3-(trifluoromethyl)-1H-pyrazol-1-yl)phenyl)-2-fluorobenzamide] | 141 nM | 130 to 131 °C | – | – | –
16 | N#Cc1ccc(C(=O)Nc2cccc(-n3nc(C(F)(F)F)cc3C(F)(F)F)c2)cc1 [Example 238, N-[3-[3,5-bis(trifluoromethyl)-1H-pyrazol-1-yl]phenyl]-4-cyanobenzamide] | – | 133 to 134 °C | – | – | 3%
17 | N#Cc1cc(C(F)(F)F)nn1-c1ccc(NC(=O)c2cccnc2F)cc1 [Example 306, N-(4-(5-cyano-3-(trifluoromethyl)-1H-pyrazol-1-yl)phenyl)-2-fluoronicotinamide] | 265 nM | 150 to 151 °C | – | – | –
18 | CC1(C(=O)Nc2ccc(-n3nc(C(F)(F)F)cc3C(F)(F)F)cc2)CC1 [Example 35, N-[4-[3,5-bis(trifluoromethyl)-1H-pyrazol-1-yl]phenyl]-1-methylcyclopropanecarboxamide] | – | 109 to 110 °C | – | – | 65%
19 | O=C(Nc1ccc(-n2nc(C(F)(F)F)cc2C(F)(F)F)cc1)c1cccc(O)c1 [Example 104, N-[4-[3,5-bis(trifluoromethyl)-1H-pyrazol-1-yl]phenyl]-3-hydroxybenzamide] | 394 nM | 221 to 223 °C | – | 99% | –
20 | NC(=O)c1ccccc1NC(=O)c1ccc(-n2nc(C(F)(F)F)cc2C(F)(F)F)cc1 [Example 196, N-[2-(aminocarbonyl)phenyl]-4-[3,5-bis(trifluoromethyl)-1H-pyrazol-1-yl]benzamide] | – | 195 to 196 °C | – | – | 11%
21 | Fc1ccc(CNc2ccc(-n3nc(C(F)(F)F)cc3C(F)(F)F)cc2)cc1 [Example 84, N-[4-[3,5-bis(trifluoromethyl)-1H-pyrazol-1-yl]phenyl]-4-fluorobenzenemethanamine] | 712 nM | 92 to 94 °C | – | – | 76%
22 | O=C(Nc1ccc(-n2nc(C(F)(F)F)cc2C(F)(F)F)cc1)c1c(F)cc(Cl)cc1Cl [Example 232, N-[4-[3,5-bis(trifluoromethyl)-1H-pyrazol-1-yl]phenyl]-2,4-dichloro-6-fluorobenzamide] | 172 nM | 185 to 188 °C | 99% | – | –
23 | O=C(Nc1ccc(-n2nc(C(F)(F)F)cc2C(F)(F)F)cc1)c1cc2cc(F)ccc2[nH]1 [Example 20, N-[4-[3,5-bis(trifluoromethyl)-1H-pyrazol-1-yl]phenyl]-5-fluoro-1H-indole-2-carboxamide] | – | 253 to 255 °C | – | – | 10%
24 | O=C(Nc1ccc(-n2nc(C(F)(F)F)cc2C(F)(F)F)cc1)C1CCCN1 (centres unmarked) [Example 242, N-[4-[3,5-bis(trifluoromethyl)-1H-pyrazol-1-yl]phenyl]-2-pyrrolidinecarboxamide] | – | 82 to 84 °C | – | – | 3%
25 | O=C(Nc1ccc(F)cc1F)c1ccc(-n2nc(C(F)(F)F)cc2C(F)(F)F)cc1 [Example 187, 4-[3,5-Bis(trifluoromethyl)-1H-pyrazol-1-yl]-N-(2,4-difluorophenyl)benzamide] | 362 nM | 176 to 177 °C | – | – | 86%
26 | O=C(Nc1ccc(-n2nc(C(F)(F)F)cc2C(F)(F)F)cc1)C1CCOC1 (centres unmarked) [Example 243, N-[4-[3,5-bis(trifluoromethyl)-1H-pyrazol-1-yl]phenyl]tetrahydro-3-furancarboxamide] | 390 nM | 193 to 194 °C | 99% | – | –
27 | CC(C)(C)OC(=O)N1CSCC1C(=O)Nc1ccc(-n2nc(C(F)(F)F)cc2C(F)(F)F)cc1 (centres unmarked) [Example 258, 1,1-Dimethylethyl 4-[[[4-[3,5-bis(trifluoromethyl)-1H-pyrazol-1-yl]phenyl]amino]carbonyl]-3-thiazolidinecarboxylate] | – | 82 to 84 °C | – | – | 16%
28 | O=C(Nc1ccc(-n2nc(C(F)(F)F)cc2C(F)(F)F)cc1)c1csc([N+](=O)[O-])c1 [Example 257, N-[4-[3,5-bis(trifluoromethyl)-1H-pyrazol-1-yl]phenyl]-5-nitro-3-thiophenecarboxamide] | 387 nM | 164 to 165 °C | 100% | – | –
29 | N#Cc1cc(C(F)(F)F)nn1-c1ccc(NC(=O)c2ccncc2)cc1 [Example 303, N-(4-(5-cyano-3-(trifluoromethyl)-1H-pyrazol-1-yl)phenyl)isonicotinamide] | 487 nM | 145 to 146 °C | – | – | –
30 | O=C(Nc1ccc(-n2nc(C(F)(F)F)cc2C(F)(F)F)cc1)c1ccc(F)c([N+](=O)[O-])c1 [Example 200, N-[4-[3,5-bis(trifluoromethyl)-1H-pyrazol-1-yl]phenyl]-4-fluoro-3-nitrobenzamide] | – | 186 to 187 °C | – | – | 26%
